Entries after “also recorded” stand apart in the source; their conditions may differ.
Columns and labels:
[1] = test system: experimental autoimmune encephalomyelitis (EAE) induced with mouse spinal cord homogenate in CFA; experiment: Experimental autoimmune encephalomyelitis (EAE) model of multiple sclerosis; format: in vivo, Biozzi mice; conditions: for protection against EAE (clinical disease score, weight loss): days -1 to 10, Biozzi mice; for overall effect on EAE disease: general statement, no dose given
Description: Groups of 10 Biozzi mice aged between 5 and 8 weeks of age were challenged in the flank with mouse spinal cord homogenate (SCH) in complete Freund's adjuvant (CFA) in order to induce EAE. Treatments were given according to the schedule below. Treatment (n=8 per group) Group A—vehicle control Group B—RU350 30 mg/kg days −1 to 10 once daily by oral gavage Group C—RU350 10 mg/kg days −1 to 10 twice daily by oral gavage Group D—Positive control drug A 20 mg/ml solution of SCH in PBS was prepared and mixed in an equal volume with CFA. The mixture was sonicated in a Branson 1200 sonicator for 15 minutes and then homogenised for three minutes. An amount of 1 mg in 100 μl was administered per mouse by subcutaneous injection at the base of tail. In addition, mice were given 200 ng pertussis toxin in 0.5 ml by intraperitoneal (ip) injection on day 0 and again 48 hours later. Mice were treated according to the outline above from day −1 to day 10. The compound of formula (Ia) (i.e. RUS350) was prepared daily by dissolving 15 mg of the compound (stored at −20° C.) in sterile distilled water to give 6 mg/ml solution. A dose of 100 μl was given by oral gavage daily to the group B mice (equivalent to 30 mg/kg per 20 g mouse). For group C mice, 1 ml of the […] stock was further diluted 1:3 in sterile distilled water, and a dose of 100 μl was given orally twice daily (equivalent to 2×10 mg/kg per 20 g mouse). Distilled water served as the vehicle control for the mice in group A. Group D mice were given a dose of 5 mg/kg dexamethasone (100 μg in 100 μl per 20 g mouse) on days 3-7 and days 10-12. Moribund animals were euthanised according to Home Office regulations and all remaining animals were euthanized at day 28 post-induction. At termination, brains and spinal cords were taken from all animals and fixed for histopathology examination. Mice were weighed prior to EAE induction (Day 0) and then daily from day 5 until termination. Clinical disease was monitored from day 5 and scored according the following system: [table]

DAT and VMAT2 in brain = conditions: conscious rat brain; cited from earlier work

## C[C@@H]1C[C@H]2[C@@H]3CCC4=CC(=O)C=C[C@]4(C)[C@@]3(F)[C@@H](O)C[C@]2(C)[C@@]1(O)C(=O)CO [steroid, dexamethasone, reference compound]
[1]; positive control, 5 mg/kg on days 3-7 and days 10-12, Biozzi mice
  inhibition of severe EAE associated with weight loss: markedly inhibited this effect

## COc1cc2c(cc1O[11CH3])CCN1C[C@@H](CC(C)C)[C@H](O)C[C@H]21 (single isomer, unassigned) [(+)-α-[^11C]dihydrotetrabenazine]
DAT and VMAT2 in brain
  distribution of radio-labelled isomer in the brain: accumulated in regions of the brain associated with higher concentrations of the neuronal membrane dopamine transporter (DAT) and the vesicular monoamine transporter (VMAT2)

## COc1cc2c(cc1OC)[C@H]1C[C@H](O)[C@@H](CC(C)C)CN1CC2 (single isomer, unassigned) [compound of formula (Ia)]
[1]; 10 mg/kg twice daily by oral gavage
  protection against EAE (clinical disease score, weight loss): very high level of protection
[1]; 30 mg/kg once daily by oral gavage
  protection against EAE (clinical disease score, weight loss): moderate degree of protection
[1]
  overall effect on EAE disease: profound effect on the disease; also recorded: levels of protection similar to that provided by treatment with steroids
[1]; listed as formula (Ia)
  overall effect on EAE disease: inhibits the development of autoimmune encephalomyelitis

## COc1cc2c(cc1O[11CH3])CCN1C[C@H](CC(C)C)[C@@H](O)C[C@@H]21 [(−)-α-[^11C]dihydrotetrabenazine]
DAT and VMAT2 in brain
  distribution of radio-labelled isomer in the brain: almost uniformly distributed in the brain

Reference: US20110039877A1, “USE OF 3, 11B-CIS-DIHYDROTETRABENAZINE IN THE TREATMENT OF MULTIPLE SCLEROSIS AND AUTOIMMUNE MYELITIS” (Biovail Laboratories International (Barbados) S.R.L., priority 2007, published 2011)
